Reference: US10260089B2, “Compositions and methods for recognition of RNA using triple helical peptide nucleic acids” (The Research Foundation for the State University of New York, priority 2012, dated 2019)
Where “and” joins values, the source holds several entries; their conditions need not be identical. Equal values may be shown once. Ends that are not written are not given here.

Tests used:
RNA hairpin HRP2 (A-U) [1] = test: ITC binding of PNA and GPNA to RNA hairpin HRP2 (Example 3); conditions: for -ΔG / -ΔH / -ΔS: acetate pH 5.5
Experimental: (§1) Isothermal Titration calorimetry. In a typical ITC experiment, an RNA hairpin solution (0.95 mL, […]) in acetate buffer [100 mM sodium acetate and 1.0 mM EDTA (pH 5.5)] was titrated with a PNA solution (50×5 μL, […]) using a Nano ITC G2 (TA Instruments) calorimeter. For full experimental details and data, see the Supporting Information. The titration data were analyzed using NanoAnalyze (TA Instruments) using an independent model to obtain the fitting graph and thermodynamic binding data (Table 7).
To gain more insight into different binding modes, guanidine-modified variants of hexamer CTCTTC (PNA4) were prepared and studied their binding to HRP2. […] While there was very little dependence on the number of modifications in the D series (entries 7-9), in the L series (entries 10-12) the affinity appeared to decrease somewhat with an increasing number of guanidine modifications.

[2] = system: ribosomal A-site model RNA hairpin HRP6; test: ITC binding to bacterial ribosomal A-site model RNA hairpin HRP6 (Example 3); design: species or system Mycobacterium tuberculosis; conditions: sodium acetate buffer (pH 5.5)
[3] = system: ribosomal A-site model RNA hairpin HRP5; test: ITC binding to human ribosomal A-site model RNA hairpin HRP5 (Example 3); conditions: sodium acetate buffer (pH 5.5)
RNA hairpin HRP1 (G-C) [4] = test: ITC binding of PNA and GPNA to RNA hairpin HRP1 (Example 3); conditions: for Ka: 100 mM sodium acetate and 1.0 mM EDTA (pH 5.5); for -ΔG / -ΔH / -ΔS: acetate pH 5.5
Experimental: as §1
The guanidine-modified PNA oligomers [GPNA (FIG. 10)] were made using the standard Fmoc synthesis protocols on the Expedite 8909 synthesizer and purified by reverse-phase high-performance liquid chromatography. […] To allow direct comparison, the same GPNA sequences were prepared (FIG. 10), like the PNA used in previous study of triple-helix formation with double-helical RNA. The binding of GPNA to RNA hairpin (HRP1) was studied using isothermal titration calorimetry [ITC (FIG. 11)]. […] Formation of the complex was further confirmed using circular dichroism (CD) spectroscopy. […] Addition of 4.5 equiv (conditions mimicking the end point of ITC titration) of D-GPNA1 and L-GPNA1 to HRP1 induced a decrease in the magnitude of the CD signal at 240-250 nm, which was clearly visible in the difference spectra. However, a significant increase around 280 nm was not observed. […] Overall, the CD spectra confirmed the formation of GPNA-RNA complexes.

DNA version of HRP1 = test: ITC binding of GPNA to a DNA version of HRP1 (Example 3); conditions: acetate pH 5.5
Experimental: as §1
Binding of D-GPNA1 to the HRP1 hairpin, consistent with, made of deoxynucleotides (DNA version of HRP1) was weaker by ˜1 order of magnitude (cf., entries 2 and 4). In contrast, the affinity of L-GPNA1 for either the RNA or DNA hairpin was practically the same (cf., entries 3 and 5). Under physiologically relevant conditions [37° C., in 2 mM MgCl2, 90 mM KCl, 10 mM NaCl, and 50 mM potassium phosphate (pH 7.4)], no binding of D-GPNA1 to HRP1 was observed. The sequence of PNA3 was symmetric and thus provided optimal binding for formation of both a parallel triple helix and an antiparallel duplex, as required for triplex invasion (FIGS. 12A-12C).

RNA hairpin HRP3 (C-G) = test: ITC binding of PNA and GPNA to RNA hairpin HRP3 (Example 3); conditions: sodium acetate buffer (pH 5.5)
Experimental: as §1
(§2) Next the sequence selectivity of binding of GPNA1 to all four RNA hairpins having a variable central base pair [HRP1-HRP4 (FIGS. 6 and 10)] was checked.

RNA hairpin HRP4 (U-A) = test: ITC binding of PNA and GPNA to RNA hairpin HRP4 (Example 3); conditions: sodium acetate buffer (pH 5.5)
Experimental: as §1, §2

[5] = cited from earlier work
RNA hairpin HRP1 (G-C) [6] = test: ITC binding of PNA and GPNA to RNA hairpin HRP1 (Example 3); conditions: 37° C., 2 mM MgCl2, 90 mM KCl, 10 mM NaCl, 50 mM potassium phosphate (pH 7.4)
RNA hairpin HRP2 (A-U) [7] = test: ITC binding of PNA and GPNA to RNA hairpin HRP2 (Example 3); conditions: experiment of entry 13 repeated in acetate buffer at pH 7.3
[8] = 100 mM sodium acetate and 1.0 mM EDTA (pH 5.5)

| Compound | Ka (RNA hairpin HRP2 (A-U) [1]; [8]) | -ΔG (RNA hairpin HRP2 (A-U) [1]) | -ΔH (RNA hairpin HRP2 (A-U) [1]) | -ΔS (RNA hairpin HRP2 (A-U) [1]) | Average association constants Ka, M. tuberculosis (HRP6) [2] | Average association constants Ka, H. Sapiens (HRP5) [3] | further results |
| --- | --- | --- | --- | --- | --- | --- | --- |
| NH2-CTD-ArgTD-ArgCTD-ArgC [D-GPNA7] | 0.4 ± 0.01 ×10^6 M^−1 | 31.8 ± 0 kJ/mol | 108 ± 15.5 kJ/mol | 61 ± 13 eu | – | – | – |
| NH2-CTD-ArgTCTD-ArgC [D-GPNA6] | 5e+06 M⁻¹ | 38.1 kJ/mol | 56.1 kJ/mol | 14 eu | – | – | – |
| NH2-CTCTL-ArgTC [L-GPNA2] | 1.8e+06 M⁻¹ | 35.6 kJ/mol | 166 kJ/mol | 104 eu | – | – | – |
| H-CCCTPCTT (cysteine pairing not given here) [PNA13] | – | – | – | – | 1.5e+06 M⁻¹ | NB[b] (No binding; Ka < 10^3 M^−1.) | – |
| NH2-CTCTD-ArgTC [D-GPNA2] | 500000 M⁻¹ | 32.6 kJ/mol | 293 kJ/mol | 209 eu | – | – | – |
| NH2-CTGCTT [PNA12] | – | – | – | – | 200000 M⁻¹ | 60000 M⁻¹ | – |
| NH2-CTL-ArgTL-ArgCTL-ArgC [L-GPNA7] | 3.8 ± 0.1 ×10^6 M^−1 | 37.2 ± 1.3 kJ/mol | 54.4 ± 30.5 kJ/mol | 14 ± 25 eu | – | – | – |
| NH2CTL-ArgGCTL-ArgT [GPNA13] | – | – | – | – | 2.9e+06 M⁻¹ | 8.1e+06 M⁻¹ | – |
| NH2-CTL-ArgCTTL-ArgC [L-GPNA3] | 800000 M⁻¹ | 33.5 kJ/mol | 246 kJ/mol | 170 eu | – | – | – |
| NH2-CTL-ArgCCTL-ArgC [L-GPNA1] | 800000 M⁻¹ | – | – | – | – | – | Ka (RNA hairpin HRP1 (G-C) [4]): 2.2 ± 1.6 ×10^6 M^−1 and 2.2 ×10^6 M^−1; -ΔG (RNA hairpin HRP1 (G-C) [4]): 36 ± 2.1 kJ/mol; -ΔH (RNA hairpin HRP1 (G-C) [4]): 101 ± 40.2 kJ/mol; -ΔS (RNA hairpin HRP1 (G-C) [4]): 53 ± 34 eu; -ΔG (DNA version of HRP1): 36.4 kJ/mol; -ΔH (DNA version of HRP1): 87.9 kJ/mol; -ΔS (DNA version of HRP1): 41 eu; Ka (DNA version of HRP1): 2.5e+06 M⁻¹; Average association constants Ka, HRP3 (C-G) (RNA hairpin HRP3 (C-G)): 600000 M⁻¹; Average association constants Ka, HRP4 (U-A) (RNA hairpin HRP4 (U-A)): 400000 M⁻¹ |
| Nc1cc[nH]c(=O)n1 [cytosine] | – | – | – | – | – | – | pKa [5]: ~4.5 |
| NH2-CCTGCTT [PNA11] | – | – | – | – | 200000 M⁻¹ | 40000 M⁻¹ | – |
| NH2-CTL-ArgCTL-ArgTL-ArgC [L-GPNA4] | 500000 M⁻¹ | 32.6 kJ/mol | 258 kJ/mol | 181 eu | – | – | – |
| NH2-CCCTGCTT [PNA10] | – | – | – | – | 1.2e+06 M⁻¹ | 400000 M⁻¹ | – |
| NH2-CTD-ArgCCTD-ArgC [D-GPNA1] | 300000 M⁻¹ | – | – | – | – | – | Ka (RNA hairpin HRP1 (G-C) [4]): 4.6 ± 1.6 ×10^6 M^−1 and 4.6 ×10^6 M^−1; -ΔG (RNA hairpin HRP1 (G-C) [4]): 38.1 ± 0.84 kJ/mol; -ΔH (RNA hairpin HRP1 (G-C) [4]): 114 ± 10.5 kJ/mol; -ΔS (RNA hairpin HRP1 (G-C) [4]): 61 ± 9 eu; -ΔG (DNA version of HRP1): 32.2 kJ/mol; -ΔH (DNA version of HRP1): 122 kJ/mol; -ΔS (DNA version of HRP1): 72 eu; Ka (DNA version of HRP1): 400000 M⁻¹; Average association constants Ka, HRP3 (C-G) (RNA hairpin HRP3 (C-G)): 700000 M⁻¹; Average association constants Ka, HRP4 (U-A) (RNA hairpin HRP4 (U-A)): 1.3e+06 M⁻¹; binding to HRP1 under physiologically relevant conditions (RNA hairpin HRP1 (G-C) [6]): no binding |
| NH2-CTTD-ArgCTC [D-GPNA5] | 1.05e+07 M⁻¹ | 40.2 kJ/mol | 82.8 kJ/mol | 34 eu | – | – | Ka (RNA hairpin HRP2 (A-U) [1]; pH 5.5, antiparallel GPNA): ~10^7; binding to HRP2 in acetate buffer at pH 7.3 (RNA hairpin HRP2 (A-U) [7]): no binding |
| NH2-CCCTPexCTT [PNA14] | – | – | – | – | 2e+06 M⁻¹ | NB[b] (No binding; Ka < 10^3 M^−1.) | – |
| NH2-CTD-ArgCTD-ArgTD-ArgC [D-GPNA4] | 600000 M⁻¹ | 33.1 kJ/mol | 95.8 kJ/mol | 50 eu | – | – | – |
| NH2-CTL-ArgGCTT [GPNA12] | – | – | – | – | 400000 M⁻¹ | 800000 M⁻¹ | – |
| NH2-CTD-ArgCTTD-ArgC [D-GPNA3] | 500000 M⁻¹ | 32.6 kJ/mol | 175 kJ/mol | 114 eu | – | – | – |
| NH2-CCCTL-ArgGCTL-ArgT [GPNA10] | – | – | – | – | 500000 M⁻¹ | 2.8e+06 M⁻¹ | – |
